Earlier results on one compound are cited in US6544961B1, “Combinations comprising VX478, zidovudine, FTC and/or 3TC for use in the treatments of HIV” (SmithKline Beecham Corporation, priority 1996, dated 2003).

This series deals with HIV. Conditions: European Patent Specification No. 384536.

For `Nc1ccn(C2CSC(CO)O2)c(=O)n1` (racemic) [BCH-189, 4-amino-1-(2-hydroxymethyl-1,3-oxathiolan-5-yl)-(1H)-pyrimidin-2-one], the anti-HIV activity entry is recorded as “have been found to have anti-HIV activity”.
